Reference: PubChem BioAssay (NCI)
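Dose response: 5 concentrations. Exposure: 48 h. Format: 96-well plates. Endpoint: linear interpolation; highest concentration if not reached. Definition used: TGI = concentration required for complete inhibition of growth.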

Columns and labels:
Assay in all cases: NCI tumour cell line growth inhibition, 48 h
[1] = system: UACC-257 melanoma
[2] = system: NCI-H460 lung
[3] = system: NCI-H23 lung
[4] = system: SNB-75 CNS
[5] = system: RXF-631 renal
[6] = system: IGROV1 ovarian
[7] = system: HOP-18 NSCLC
[8] = system: HCT-15 colon
[9] = system: KM20L2 colon
[10] = system: SW-620 colon
[11] = system: HOP-62 NSCLC
[12] = system: SK-OV-3 ovarian
[13] = system: OVCAR-4 ovarian
[14] = system: SNB-78 CNS
[15] = system: ACHN renal
[16] = system: LOX IMVI melanoma
[17] = system: M14 melanoma
[18] = system: DMS 114 small cell lung
[19] = system: U251 CNS
[20] = system: A549 NSCLC
[21] = system: SN12C renal
[22] = system: SF-268 CNS
[23] = system: EKVX NSCLC
[24] = system: OVCAR-5 ovarian
[25] = system: SK-MEL-5 melanoma
[26] = system: COLO 205 colon
[27] = system: UO-31 renal
[28] = system: SF-539 CNS
[29] = system: CAKI-1 renal
[30] = system: SF-295 CNS
[31] = system: HCC-2998 colon
[32] = system: MALME-3M melanoma
[33] = system: SNB-19 CNS
[34] = system: HCT-116 colon
[35] = system: HOP-92 NSCLC
[36] = system: MOLT-4 leukemia
[37] = system: SK-MEL-2 melanoma
[38] = system: CCRF-CEM leukemia
[39] = system: K-562 leukemia
[40] = system: HT29 colon
[41] = system: KM12 colon
[42] = system: A498 renal
[43] = system: NCI-H522 lung
[44] = system: M19-MEL melanoma
[45] = system: LXFL 529 NSCLC
[46] = system: 786-0 renal
[47] = system: DLD-1 colon
[48] = system: OVCAR-8 ovarian
[49] = system: HL-60(TB) leukemia
[50] = system: DMS 273 small cell lung
[51] = system: XF 498 CNS
[52] = system: RXF 393 renal
[53] = system: OVCAR-3 ovarian
[54] = system: UACC-62 melanoma
[55] = system: TK-10 renal
[56] = system: RPMI-8226 leukemia
[57] = system: NCI-H226 lung
[58] = system: SK-MEL-28 melanoma

## COC(=O)c1cc2cc(OC)c(OC)cc2cc(C(=O)OC)c1=O
[1]
  TGI: > 100 µM
[2]
  TGI: > 100 µM
[3]
  TGI: > 100 µM
[4]
  TGI: > 100 µM
[5]
  TGI: > 100 µM
[6]
  TGI: > 100 µM
[7]
  TGI: > 100 µM
[8]
  TGI: > 100 µM
[9]
  TGI: > 100 µM
[10]
  TGI: > 100 µM
[11]
  TGI: > 100 µM
[12]
  TGI: > 100 µM
[13]
  TGI: > 100 µM
[14]
  TGI: > 100 µM
[15]
  TGI: > 100 µM
[16]
  TGI: > 100 µM
[17]
  TGI: > 100 µM
[18]
  TGI: > 100 µM
[19]
  TGI: > 100 µM
[20]
  TGI: > 100 µM
[21]
  TGI: > 100 µM
[22]
  TGI: > 100 µM
[23]
  TGI: > 100 µM
[24]
  TGI: > 100 µM
[25]
  TGI: > 100 µM
[26]
  TGI: > 100 µM
[27]
  TGI: > 100 µM
[28]
  TGI: > 100 µM
[29]
  TGI: > 100 µM
[30]
  TGI: > 100 µM
[31]
  TGI: > 100 µM
[32]
  TGI: > 100 µM
[33]
  TGI: > 100 µM
[34]
  TGI: > 100 µM
[35]
  TGI: > 100 µM
[36]
  TGI: > 100 µM
[37]
  TGI: > 100 µM
[38]
  TGI: > 100 µM
[39]
  TGI: > 100 µM
[40]
  TGI: > 100 µM
[41]
  TGI: > 100 µM
[42]
  TGI: > 100 µM
[43]
  TGI: > 100 µM
[44]
  TGI: > 100 µM
[45]
  TGI: > 100 µM
[46]
  TGI: > 100 µM
[47]
  TGI: > 100 µM
[48]
  TGI: > 100 µM
[49]
  TGI: > 100 µM
[50]
  TGI: > 100 µM
[51]
  TGI: > 100 µM
[52]
  TGI: > 100 µM
[53]
  TGI: > 100 µM
[54]
  TGI: > 100 µM
[55]
  TGI: > 100 µM
[56]
  TGI: > 100 µM

## Nc1ccc(N)c2c1C(=O)c1ccccc1C2=O
[1]
  TGI: > 100 µM
[2]
  TGI: > 100 µM
[3]
  TGI: > 100 µM
[4]
  TGI: > 100 µM
[5]
  TGI: > 100 µM
[6]
  TGI: > 100 µM
[7]
  TGI: > 100 µM
[8]
  TGI: > 100 µM
[9]
  TGI: > 100 µM
[10]
  TGI: > 100 µM
[11]
  TGI: > 100 µM
[12]
  TGI: > 100 µM
[13]
  TGI: > 100 µM
[14]
  TGI: > 100 µM
[15]
  TGI: > 100 µM
[57]
  TGI: > 100 µM
[16]
  TGI: > 100 µM
[17]
  TGI: > 100 µM
[18]
  TGI: > 100 µM
[19]
  TGI: > 100 µM
[20]
  TGI: > 100 µM
[58]
  TGI: > 100 µM
[21]
  TGI: > 100 µM
[22]
  TGI: > 100 µM
[23]
  TGI: > 100 µM
[24]
  TGI: > 100 µM
[25]
  TGI: > 100 µM
[26]
  TGI: > 100 µM
[27]
  TGI: > 100 µM
[28]
  TGI: > 100 µM
[29]
  TGI: > 100 µM
[31]
  TGI: 72.9 µM
[32]
  TGI: > 100 µM
[33]
  TGI: > 100 µM
[34]
  TGI: > 100 µM
[35]
  TGI: > 100 µM
[36]
  TGI: > 100 µM
[37]
  TGI: > 100 µM
[38]
  TGI: > 100 µM
[39]
  TGI: > 100 µM
[40]
  TGI: > 100 µM
[41]
  TGI: > 100 µM
[42]
  TGI: > 100 µM
[43]
  TGI: > 100 µM
[44]
  TGI: > 100 µM
[45]
  TGI: > 100 µM
[46]
  TGI: > 100 µM
[47]
  TGI: > 100 µM
[48]
  TGI: > 100 µM
[50]
  TGI: > 100 µM
[51]
  TGI: > 100 µM
[53]
  TGI: > 100 µM
[54]
  TGI: > 100 µM
[55]
  TGI: 94 µM
[56]
  TGI: > 100 µM
